Measured values published in patent publication US6872742B2, “Substituted cyclic amine metalloprotease inhibitors” (The Procter & Gamble Company, priority 1996, dated 2005).

Key:
Type in all cases: in vivo
[1] = system: human subject suffering from osteoarthritis; assay: Example B: capsule given daily to a subject suffering from osteoarthritis; conditions: capsule containing 70 mg daily for 5 years, 90 kg person
Source text: The compounds of the invention are useful to prepare compositions for the treatment of ailments and the like. […] In each case the compounds formula I may be substituted for the example compound shown below with similar results.
The skilled practitioner will appreciate that the examples provide guidance and may be varied based on condition and the patient.
A capsule for oral administration, according to the present invention, is made comprising:
A human subject weighing 90 kg (198 lbs), suffering from osteoarthritis, is treated by a method of this invention. Specifically, for 5 years, a capsule containing 70 mg of the compound of Example 3 is administered daily to said subject.

[2] = system: patient suffering from chemical burns; assay: Example D: topical composition applied by a patient suffering from chemical burns; conditions: 0.20% w/v topical composition at each dressing change (b.i.d.)
Source text: (§1) The compounds of the invention are useful to prepare compositions for the treatment of ailments and the like. […] In each case the compounds formula I may be substituted for the example compound shown below with similar results. […] The skilled practitioner will appreciate that the examples provide guidance and may be varied based on condition and the patient. A topical composition for local administration, according to the present invention, is made comprising: A patient suffering from chemical burns applies the composition at each dressing change (b.i.d.).

asthma sufferer = assay: Example E: inhalation aerosol used by an asthma sufferer; conditions: 5.0% w/v aerosol, 0.01 mL sprayed into the mouth while inhaling
Description: as §1, with “inhalation aerosol composition,” for “topical composition for local administration,”, “An asthma sufferer sprays 0.01 mL via a pump actuator into” for “A patient suffering from chemical burns applies”, “mouth while inhaling.” for “composition at each dressing change (b.i.d.).”

[3] = system: human subject suffering from rheumatoid arthritis; assay: Example A: tablets given orally to a subject suffering from rheumatoid arthritis; conditions: tablet with 15 mg compound, three tablets per day orally for 2 years, 60 kg person
Source text: as §1, with “A tablet” for “A topical”, “for oral” for “for local”, “A human subject weighing 60 kg (132 lbs),” for “A patient”, “from rheumatoid arthritis, is treated by a method of this invention. Specifically, for 2 years, a regimen of three tablets per day is administered orally to said subject.” for “from chemical burns applies the composition at each dressing change (b.i.d.).”

[4] = system: patient having deep corneal abrasion; assay: Example C: saline-based eye drop applied by a patient having deep corneal abrasion; conditions: 5% w/w drop applied to each eye twice a day
Source text: as §1, with “saline-based” for “topical”, “having deep corneal abrasion” for “suffering from chemical burns”, “drop to” for “composition at”, “eye twice a day.” for “dressing change (b.i.d.).”

[5] = system: human subject with a premetastatic tumor; assay: Example G: parenteral suspension injected next to a premetastatic tumor; conditions: 100 mg/ml suspension, approximately 2.0 ml injected beside the tumor twice daily for approximately 30 days
Source text: The compounds of the invention are useful to prepare compositions for the treatment of ailments and the like. […] In each case the compounds formula I may be substituted for the example compound shown below with similar results. […] The skilled practitioner will appreciate that the examples provide guidance and may be varied based on condition and the patient. A composition for parenteral administration is made comprising: The above ingredients are mixed, forming a suspension. Approximately 2.0 ml of the suspension is administered, via injection, to a human subject with a premetastatic tumor. The injection site juxtaposes the tumor. This dosage is repeated twice daily, for approximately 30 days.

`COc1ccc(S(=O)(=O)N2C[C@H](O)C[C@H]2C(=O)NO)cc1` [Example 3, (1N)-4-Methoxyphenylsulfonyl-(2S)-N-hydroxycarboxanido-(4R)-hydroxypyrrolidine] was tested, and the “orthoscopy finding at the end of the treatment period (erosion/fibrillation of the articular cartilage)” value [1] was “no further advancement of erosion/fibrillation of the articular cartilage” and the scarring [2] was “Scarring is substantially diminished”.

`COc1ccc(S(=O)(=O)N2C[C@@H](O)C[C@@H]2C(=O)NO)cc1` [Example 2, (1N)-4-Methoxyphenylsulfonyl-(2R)-N-hydroxycarboxamido-(4S)-hydroxypyrrolidine] was tested, and the asthma symptoms (asthma sufferer) was “Asthma symptoms are diminished”.

`COc1ccc(S(=O)(=O)N2C[C@H](Sc3nccn3C)C[C@@H]2C(=O)NO)cc1` [Example 9, (1N)-4-Methoxyphenylsulfonyl-(2R)-N-hydroxycarboxado-(4R)-[(1N)-methyl-2-mercaptoimidazyl]-pyrrolidine] was tested, and the “findings on examination at the end of the treatment period (inflammation, mobility, pain)” value [3] was “reduced inflammation, and improved mobility without concomitant pain”.

With `COc1ccc(S(=O)(=O)N2C[C@@H](Oc3ccccc3)C[C@@H]2C(=O)NO)cc1` [Example 13, (1N)-4-Methoxyphenylsulfonyl-(2R)-N-hydroxycarboxamido-(4S)-phenoxypyrrolidine] the corneal healing [4] was “Healing is speeded, with no visual sequelae”.

With `COc1ccc(S(=O)(=O)N2C[C@@H](O)C[C@H]2C(=O)NO)cc1` [Example 4, (1N)-4-Methoxyphenylsulfonyl-(2S)-N-hydroxycarboxanido-(4S)-hydroxy-pyrrolidine] the “symptoms of the disease after 30 days” value [5] was “symptoms of the disease subside”.
